One assay deals with BM neutrophils. The assay can be described thus: Apoptosis of BM-isolated mouse neutrophils by annexin-V labelling. The format is cell-based. Conditions: increasing gliotoxin concentrations. As to the method:
In vivo model of LPS-induced airway inflammation. Peripheral blood neutrophils and BM mature neutrophils from femurs were isolated using Percoll density gradient, as described in Mocsai et al. (2002, Immunity 16:547-558). Intranasal LPS administration in mice and collection of cells from BALF was performed as described in Chignard et al. (2000, Am. J. Physiol. Lung Cell Mol. Physiol. 279:L1083-1090). Mice were treated in accordance with Inserm guidelines in compliance with European animal-welfare regulations. Seven-week-old male C57B1/6 mice, weighing 25-30 g (Charles Rivers), were anesthetized by intra-muscular injection of a mixture of ketamine and xylasine, and then 330 μg/kg of LPS dissolved in 50 μl of saline were deposited intranasally. At different times, animals were killed by an intraperitoneal injection of a lethal dose of sodium pentobarbital (Sanofi) to isolate lung neutrophils. The trachea of each mouse was then cannulated and BAL performed with a syringe and multiple cycles of saline instillation (0.5 ml) and aspiration to obtain a BALF volume of 4 ml. The latter was centrifuged, pelleted cells were collected and differential cell counts made after cytospin centrifugation and staining with Diff-Quik products. BAL neutrophils were isolated by Ficoll density gradient centrifugation. […]

For assay [1], the system named is neutrophils. The assay can be described thus: Neutrophil apoptosis/survival by phosphatidylserine externalization after annexin-V and 7-AAD labeling. The format is cell-based, human. The following applies: 15 h at 37° C.; anti-Fas mAb 10 ng/ml, gliotoxin 2 mg/ml. The protocol:
Analysis of apoptosis. Neutrophil apoptosis was triggered by incubating neutrophils at 37° C. alone (constitutive apoptosis) or with anti-Fas mAb (10 ng/ml; Beckman-Coulter) or gliotoxin ([…]; Sigma) (Ward et al. 1999, J. Biol. Chem. 274:4309-4318) for the indicated times. Neutrophil apoptosis was evaluated by phosphatidylserine externalization after annexin-V and 7-AAD labeling (Kantari et al. 2007, Blood 110:4086-4095); mitochondrial depolarization after DiOC6 labeling (Moriceau et al. 2009, J. Immuno1.182:7254-7263); caspase-3 and caspase-8 activities measured by spectrophotometry (Biovision) in neutrophil lysates. In DMF-differentiated-PLB985 cells, apoptosis was triggered by gliotoxin or by rTRAIL (10 ng/ml; RD System) (Yin et al. 2005, Int. J. Biochem. Cell Biol. 37:1696-1708) and caspase-8 and caspase-9 activities were determined after gating on CD11b^+ cells using the Caspase-Glow® assay (Promega). Apoptosis-induced chromatin condensation and DNA fragmentation were assessed, respectively, after DNA staining with the blue fluorescent dye Hoechst (5 mg/ml) and propidium-iodide staining (Goepel et al. 2004, J. Leukoc. Biol. 75:836-843). Carboxyp21 ([…], SEQ ID NO: 24) corresponding to the p21 carboxy-terminus sequence (residues 141-160) and containing a RYIRS carboxy-terminal extension to facilitate its cell entry was synthesized and purified (Genecust). A modified peptide in which the charged amino acids responsible for its binding to PCNA have been changed according to dynamic simulation studies ([…], SEQ ID NO: 25) served as control. The effect of PS-341 (LC Laboratories) and MG132 were tested on neutrophil apoptosis and PCNA expression as indicated.

For assay [2] the following is noted: report; cited from earlier work.
Assay [3] relates to neutrophils. The following applies: report; cited from earlier work.

Results on two molecules are retold here after patent US20130059773A1, “COMPOUNDS FOR THE TREATMENT OF INFLAMMATION AND NEUTROPENIA” (priority 2010, published 2013).

Consider `CN1C(=O)[C@]23CC4=CC=C[C@H](O)[C@H]4N2C(=O)[C@@]1(CO)SS3` [gliotoxin, reference compound], for which the “Apoptosis of BM neutrophils by annexin-V labelling” value in the assay with BM neutrophils is on record as “trigger apoptosis in BM neutrophils in a dose-dependent manner”. Further, in the assay with neutrophils [1], the “Increase of annexin-V+ 7-AAD− cells” value is given as “further enhanced”.
On to `CC[C@H](CO)Nc1nc(NCc2ccccc2)c2ncn(C(C)C)c2n1` [roscovitine], for which, in assay [2], the “Inflammation resolution in vivo” value is “promotes inflammation resolution in vivo”. Also, the Neutrophil apoptosis result with neutrophils [3] is on record as “triggers neutrophil apoptosis”.
